Laboratory results as given in PubChem BioAssay AID1259246 (Broad Institute, 2017).
Several values for one entry are separate records, joined by “and”; a condition that tells them apart may be missing. Identical values can stand only once. Results filed as inconclusive are left out. Activity calls are given as the source filed them.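 How the source made its calls: active means valid dose-response fit whose half-maximal growth-inhibiting concentration is at or below a set limit above the top tested dose; inconclusive means flat fit with effect between 30 and 70%, or poor fit; inactive means half-maximal concentration above a set limit.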

Test system: not listed separately
Test: antibacterial activity against Clostridioides difficile – 10-point retest, dose response (AID 1259246)
Conditions: Clostridioides difficile clinical isolate growth, OD600, 24 h; at 30 µM (top of the series)

SMILES | activity change, negative = inhibition
CO[C@H]1CN(C)C(=O)c2ccc(NC(=O)Nc3cc(Cl)cc(Cl)c3)cc2OC[C@@H](C)NC[C@@H]1C | 32.6% (inactive)

Same assay, conditions: Clostridioides difficile clinical isolate growth, OD600, 24 h; at 120 µM (top of the series)

SMILES | activity change, negative = inhibition
O=C(NCC[C@@H]1CC[C@H](NC(=O)C2CC2)[C@H](CO)O1)Nc1ccc(C(F)(F)F)cc1 | -0.062% (inactive)
O=C(NCC[C@H]1CC[C@@H](NC(=O)C2CC2)[C@@H](CO)O1)Nc1ccc(C(F)(F)F)cc1 | 4.63% (inactive)
Cc1ccc(F)cc1S(=O)(=O)N[C@@H]1CCN(Cc2ccc(OC(C)C)cc2)C1 | 21.4% (inactive)
CO[C@@H]1CN(C)C(=O)c2ccc(NC(=O)Nc3cc(Cl)cc(Cl)c3)cc2OC[C@H](C)NC[C@@H]1C | 4.74% (inactive)
O=C(NCC[C@@H]1CC[C@@H](NC(=O)C2CC2)[C@@H](CO)O1)Nc1ccc(C(F)(F)F)cc1 | 2.33% (inactive)
O=C(NCC[C@H]1CC[C@H](NC(=O)C2CC2)[C@H](CO)O1)Nc1ccc(C(F)(F)F)cc1 | -1.84% (inactive)

Test system: Clostridioides difficile clinical isolate growth, OD600, 24 h
Test: as above
Conditions: not given

SMILES | IC50
O=C(NCC[C@@H]1CC[C@H](NC(=O)C2CC2)[C@H](CO)O1)Nc1ccc(C(F)(F)F)cc1 | 15 µM
O=C(NCC[C@H]1CC[C@@H](NC(=O)C2CC2)[C@@H](CO)O1)Nc1ccc(C(F)(F)F)cc1 | 8.52 µM
Cc1ccc(F)cc1S(=O)(=O)N[C@@H]1CCN(Cc2ccc(OC(C)C)cc2)C1 | 29.6 µM
CO[C@H]1CN(C)C(=O)c2ccc(NC(=O)Nc3cc(Cl)cc(Cl)c3)cc2OC[C@@H](C)NC[C@@H]1C | 34.1 µM
CO[C@@H]1CN(C)C(=O)c2ccc(NC(=O)Nc3cc(Cl)cc(Cl)c3)cc2OC[C@H](C)NC[C@@H]1C | 74.6 µM
O=C(NCC[C@@H]1CC[C@@H](NC(=O)C2CC2)[C@@H](CO)O1)Nc1ccc(C(F)(F)F)cc1 | 6.63 µM
O=C(NCC[C@H]1CC[C@H](NC(=O)C2CC2)[C@H](CO)O1)Nc1ccc(C(F)(F)F)cc1 | 28.4 µM
C[C@H]1CN([C@@H](C)CO)C(=O)c2ccccc2-c2ccccc2CO[C@@H]1CN(C)Cc1ccccc1C(F)(F)F | 13.6 µM
COc1ccc(NC(=O)Nc2cccc3c2O[C@H](CN(C)Cc2ccc(-c4ccccc4)cc2)[C@H](C)CN([C@@H](C)CO)C3=O)cc1 | 101 µM
C[C@@H]1CN([C@@H](C)CO)C(=O)c2cccc(NC(=O)Nc3ccccc3)c2O[C@@H]1CN(C)Cc1ccc(-c2ccccc2)cc1 | 3.3 µM and 1.93 µM and 5.49 µM
C[C@@H]1CN([C@H](C)CO)S(=O)(=O)c2ccc(C#CCC3CCCC3)cc2O[C@H]1CN(C)C | 69.3 µM
CO[C@H]1CN(C)C(=O)c2cc(NC(=O)Nc3cc(Cl)cc(Cl)c3)ccc2OC[C@@H](C)NC[C@@H]1C | 33.9 µM and 6.17 µM
Cc1cc(C(=O)Nc2cccc3c2O[C@@H](CN(C)Cc2ccc(-c4ccccc4)cc2)[C@H](C)CN([C@@H](C)CO)C3=O)n(C)n1 | 17.5 µM
CO[C@H]1CN(C)C(=O)c2ccc(NC(=O)c3nc4ccccc4s3)cc2OC[C@@H](C)N(Cc2ccncc2)C[C@@H]1C | > 240 µM (inactive)
C[C@@H]1CN([C@@H](C)CO)C(=O)c2cccc(NS(=O)(=O)c3ccccc3)c2O[C@@H]1CN(C)Cc1ccc(-c2ccccc2)cc1 | 62.5 µM
C[C@@H]1CN([C@@H](C)CO)C(=O)c2cc(NC(=O)Nc3cccc4ccccc34)ccc2O[C@@H](C)CCCCO[C@H]1CN(C)CC1CCCCC1 | 77.1 µM
CO[C@@H]1CN(C)C(=O)c2cc(NC(=O)Nc3cc(Cl)cc(Cl)c3)ccc2OC[C@H](C)NC[C@@H]1C | 37.8 µM and 35.6 µM
CO[C@@H](CN(C)S(=O)(=O)c1cn(C)cn1)[C@@H](C)CN(C(=O)Nc1ccc(C(F)(F)F)cc1)[C@H](C)CO | 24.7 µM
C[C@@H]1CN([C@@H](C)CO)S(=O)(=O)c2ccc(/C=C/c3ccccc3)cc2O[C@H]1CN(C)Cc1ccc(C(=O)O)cc1 | 3.3 µM
CN(C)CC(=O)N1[C@H](C#N)[C@H](c2ccc(C#CC3CCCCC3)cc2)[C@@H]1CO | 65.2 µM
C[C@H]1CN([C@@H](C)CO)C(=O)c2cccc(NC(=O)Nc3ccc(C(F)(F)F)cc3)c2O[C@H]1CN(C)Cc1ccc(-c2ccccc2)cc1 | 116 µM
Cc1ccc(S(=O)(=O)N[C@H]2CC[C@@H](CCNC(=O)Nc3ccc(Cl)cc3)O[C@H]2CO)cc1 | > 270 µM (inactive)
CO[C@H]1CN(C)C(=O)c2cc(NC(=O)Nc3cc(Cl)cc(Cl)c3)ccc2OC[C@@H](C)NC[C@H]1C | 31.2 µM and 25.9 µM
CO[C@@H]1CN(C)C(=O)c2cc(NC(=O)Nc3cc(Cl)cc(Cl)c3)ccc2OC[C@H](C)NC[C@H]1C | 15.8 µM and 36.4 µM
C[C@H]1CN([C@@H](C)CO)C(=O)Cc2cc(NC(=O)Nc3ccc(C(F)(F)F)cc3)ccc2O[C@H]1CN(C)Cc1ccncc1 | 7.49 µM

SMILES | IC50
C[C@H]1CN([C@@H](C)CO)S(=O)(=O)c2ccc(C#CCC3CCCC3)cc2O[C@H]1CN(C)C | 70.9 µM
CO[C@@H]1CN(C)C(=O)c2cc(NC(=O)Nc3ccc(Cl)c(Cl)c3)ccc2OC[C@@H](C)NC[C@@H]1C | 13.7 µM and 26.6 µM
CO[C@H]1CN(C)C(=O)c2ccc(NC(=O)Nc3cc(Cl)cc(Cl)c3)cc2OC[C@H](C)NC[C@H]1C | 25.6 µM and 69.2 µM
C[C@@H]1CN([C@@H](C)CO)S(=O)(=O)c2ccc(C#CCC3CCCC3)cc2O[C@H]1CN(C)Cc1ccc(C(=O)O)cc1 | 32.4 µM
C[C@H](CO)N1C[C@H](C)[C@@H](CN(C)Cc2ccc(C(=O)O)cc2)Oc2cc(/C=C/c3ccccc3)ccc2S1(=O)=O | > 120 µM (inactive)
C[C@H](CO)N1C[C@H](C)[C@@H](CN(C)Cc2ccc(Oc3ccccc3)cc2)Oc2ccc(NC(=O)CCCN(C)C)cc2CC1=O | 64.1 µM
CO[C@@H](CN(C)C(=O)C1CCOCC1)[C@@H](C)CN(C(=O)Nc1ccc(C(F)(F)F)cc1)[C@H](C)CO | 4.1 µM
C[C@H](O)C#Cc1ccc2c(c1)O[C@H](CN(C)C(=O)CN(C)C)[C@H](C)CN([C@H](C)CO)S2(=O)=O | > 240 µM (inactive)
CO[C@H](CN(C)C(=O)C1CCOCC1)[C@@H](C)CN(C(=O)Nc1ccc(C(F)(F)F)cc1)[C@@H](C)CO | 2.03 µM
CNC[C@H]1Oc2cc(C#CC3CCCCC3)ccc2S(=O)(=O)N([C@H](C)CO)C[C@@H]1C | 63.8 µM
CO[C@H](CN(C)C(=O)C1CCOCC1)[C@H](C)CN(C(=O)Nc1ccc(C(F)(F)F)cc1)[C@@H](C)CO | 21.4 µM
C[C@@H]1CN([C@H](C)CO)S(=O)(=O)c2ccc(/C=C/c3ccccc3)cc2O[C@@H]1CN(C)Cc1ccc(C(=O)O)cc1 | 153 µM
CO[C@H]1CN(C)C(=O)c2cc(NC(=O)Nc3cc(Cl)cc(Cl)c3)ccc2OC[C@H](C)NC[C@@H]1C | 34 µM and 55 µM
CO[C@H]1CN(C)C(=O)c2ccc(NC(=O)Nc3ccc(Cl)c(Cl)c3)cc2OC[C@H](C)NC[C@@H]1C | 37.6 µM
C[C@@H]1CN([C@@H](C)CO)C(=O)c2cccc(NC(=O)Nc3ccc(C(F)(F)F)cc3)c2O[C@@H]1CN(C)Cc1ccc(Oc2ccccc2)cc1 | 0.443 µM and 0.73 µM
O=C(NCC[C@H]1CC[C@H](NS(=O)(=O)c2ccc(F)cc2)[C@@H](CO)O1)Nc1ccc(Cl)cc1 | 26.6 µM
COc1ccc(S(=O)(=O)Nc2cccc3c2O[C@H](CN(C)Cc2ccc(-c4ccccc4)cc2)[C@H](C)CN([C@@H](C)CO)C3=O)cc1 | 54.2 µM
C[C@@H]1CN([C@@H](C)CO)C(=O)c2cccc(NC(=O)Nc3ccc4c(c3)OCO4)c2O[C@@H]1CN(C)Cc1ccc(-c2ccccc2)cc1 | 3.03 µM
C[C@@H]1CN([C@@H](C)CO)C(=O)c2cccc(NC(=O)Nc3ccccc3)c2O[C@@H]1CN(C)Cc1ccc(C(F)(F)F)cc1 | 54.2 µM and 28 µM
C[C@@H]1CN([C@@H](C)CO)C(=O)c2ccccc2-c2ccccc2CO[C@H]1CN(C)Cc1ccccc1C(F)(F)F | 19.5 µM
COc1ccc(NC(=O)Nc2cccc3c2O[C@H](CN(C)Cc2ccc(C(F)(F)F)cc2)[C@H](C)CN([C@@H](C)CO)C3=O)cc1 | 25.6 µM
CO[C@@H]1CN(C)C(=O)c2ccc(NC(=O)c3ccc(-c4ccccc4)cc3)cc2OC[C@@H](C)NC[C@@H]1C | 62.8 µM
C[C@@H]1CCCCO[C@H](CN(C)CC2CCCCC2)[C@H](C)CN([C@H](C)CO)C(=O)c2cc(NC(=O)Nc3ccc(C(F)(F)F)cc3)ccc2O1 | 5.06 µM and 44.8 µM and 31.8 µM
Cc1ccc(-c2ccc3c(c2)O[C@@H](CN(C)Cc2ccc(C(=O)O)cc2)[C@H](C)CN([C@@H](C)CO)S3(=O)=O)cc1 | 110 µM
